Laboratory results reported in patent US7399760B2, “Pyrimidinedione derivatives” (Bexel Pharmaceuticals Inc., priority 2002, dated 2008).

What was measured:
TNF-α = TNF-α production from LPS-stimulated human monocytes (ELISA); type: cell-based; details: Monocyte, Conc. 10 μM
Method: (§1) This assay determines the effect of test compounds on the production of TNF-α from human monocytes. Compounds were tested for their ability to downregulate the production of TNF-α in activated monocytes. Test compounds were incubated for three, six and twenty four hours with human monocytes. Lipopolysaccharide was used to stimulate the monocytes. The level of TNF-α was quantitated using Enzyme-Linked Immunosorbent assay performed in a 96 well format.

IL-6 = IL-6 production from LPS-stimulated human monocytes (ELISA); type: cell-based; details: Monocyte, Conc. 10 μM
Method: as §1, with “of IL-6” for “of TNF-α”, “Compounds are” for “Compounds were”, “of Interleukin-6 is” for “of TNF-α was”

COX-2 = target: T1, COX-2 (Homo sapiens, UniProt P35354); assay: Human whole blood assay, COX-2 inhibition (PGE2 ELISA after LPS); type: cell-based; details: Conc. 1 μM, aspirin-treated, LPS 10 μg/ml, 24 h at 37° C., PGE2 in plasma
T1 construct: incubation of human blood with lipopolysaccharide (LPS), which induces COX-2 production in the blood; endogenous in cells; host or cells: fresh human whole blood from male volunteers, treated with aspirin and then LPS
T1 sequence (P35354 18-604): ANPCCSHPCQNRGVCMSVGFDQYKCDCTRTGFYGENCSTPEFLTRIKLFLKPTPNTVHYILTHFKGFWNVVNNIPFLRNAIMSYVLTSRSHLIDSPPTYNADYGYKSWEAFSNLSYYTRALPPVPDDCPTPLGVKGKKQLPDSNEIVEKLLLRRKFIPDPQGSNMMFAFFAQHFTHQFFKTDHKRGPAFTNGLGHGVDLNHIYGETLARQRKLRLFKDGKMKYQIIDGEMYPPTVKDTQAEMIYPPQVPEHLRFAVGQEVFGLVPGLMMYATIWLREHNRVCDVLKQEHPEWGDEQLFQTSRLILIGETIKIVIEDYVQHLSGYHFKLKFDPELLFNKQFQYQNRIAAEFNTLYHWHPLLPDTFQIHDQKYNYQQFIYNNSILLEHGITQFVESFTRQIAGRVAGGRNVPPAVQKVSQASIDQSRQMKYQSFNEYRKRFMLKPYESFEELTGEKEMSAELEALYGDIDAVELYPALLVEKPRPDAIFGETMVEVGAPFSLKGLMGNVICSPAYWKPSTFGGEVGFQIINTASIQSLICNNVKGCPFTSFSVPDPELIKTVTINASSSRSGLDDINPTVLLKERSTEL
Method: The COX-2 inhibition activity of the compounds illustrated in the examples was determined by the following method.
Human whole blood provides a protein and cell rich milieu appropriate for the study of biochemical efficacy of anti-inflammatory compounds such as selective COX-2 inhibitors. […] This is correlating with the observation that COX-2 inhibitors have no effect on prostaglandin E2 (PGE2) production in normal blood. These inhibitors are active only after incubation of human blood with lipopolysaccharide (LPS), which induces COX-2 production in the blood.
Fresh blood was collected in tubes containing potassium EDTA by vein puncture from male volunteers. The subjects should have no apparent inflammatory conditions and not taken NSAIDs for atleast 7 days prior to blood collection. Blood was treated with aspirin in vitro (10 μg/ml, at time zero) to inactivate COX-1, and then with LPS (10 μg/ml) along with test agents or vehicle. The blood was incubated for 24 h at 37° C., after which the tubes were centrifuged, the plasma was separated and stored at −80° C. (J Pharmacol Exp Ther 271, 1705, 1994; Proc Natl Acad Sci USA 96, 7563, 1999). The plasma was assayed for PGE2 using Cayman ELISA kit as per the procedure outlined by the manufacturer (Cayman Chemicals, Ann Arbor, USA). […]

SMILES | melting point | inhibition at 10 µM (TNF-α) [%] | inhibition at 10 µM (IL-6) [%] | inhibition at 1 µM (COX-2) [%]
CSc1ccc(-n2c(-c3ccccc3)cc(=O)[nH]c2=O)cc1 [Example 1, 1-(4-methylsulfanyl-phenyl)-6-phenyl-1H-pyrimidin-2,4-(1H)-dione] | 239 to 242 °C (dec.) | 48.5 | 80.6 | –
CSc1ccc(-n2c(-c3ccc(C)cc3)cc(=O)[nH]c2=O)cc1 [Example 2, 1-(4-methylsulfanyl-phenyl)-6-(4-methylphenyl)-1H-pyrimidin-2,4-(1H)-dione] | 235 to 238 °C | 69.3 | 78.6 | –
CSc1ccc(-n2c(-c3ccc(Cl)cc3)cc(=O)[nH]c2=O)cc1 [Example 3, 1-(4-methylsulfanyl-phenyl)-6-(4-chlorophenyl)-1H-pyrimidin-2,4-(1H)-dione] | 249 to 251 °C | – | – | –
CSc1ccc(-c2cc(=O)[nH]c(=O)n2-c2ccc(C)cc2)cc1 [Example 4, 1-(4-methylphenyl)-6-(4-methylsulfanyl-phenyl)-1H-pyrimidin-2,4-(1H)-dione] | 266 to 268 °C | – | – | –
CSc1ccc(-c2cc(=O)[nH]c(=O)n2-c2ccc(Br)cc2)cc1 [Example 5, 1-(4-bromophenyl)-6-(4-methylsulfanyl-phenyl)-1H-pyrimidin-2,4-(1H)-dione] | 282 to 285 °C | – | – | –
CS(=O)(=O)c1ccc(-n2c(-c3ccccc3)cc(=O)[nH]c2=O)cc1 [Example 6, 1-(4-methylsulfonyl-phenyl)-6-phenyl-pyrimidin-1H-pyrimidin-2,4-(1H)-dione] | 283 to 287 °C (dec.) | 43.2 | 75.3 | –
Cc1ccc(-c2cc(=O)[nH]c(=O)n2-c2ccc(S(C)(=O)=O)cc2)cc1 [Example 7] | 285 to 288 °C | 57.6 | 81.3 | 40.8
CS(=O)(=O)c1ccc(-n2c(-c3ccc(Cl)cc3)cc(=O)[nH]c2=O)cc1 [Example 8, 6-(4-chlorophenyl)-1-(4-methylsulfonyl-phenyl)-1H-pyrimidin-2,4-(1H)-dione] | 294 to 298 °C | – | – | –
